SMILES strings stand for the structures.

In assay [1] the test system is LOLRI. Kind of assay: Pre-emergence herbicidal action against LOLRI (Table 8, titled post-emergence at 320 g/ha). In kind it is in vivo, Lolium rigidum. As to conditions: table stands in the pre-emergence section. An excerpt: (§1) Seeds of monocotyledonous and dicotyledonous weed plants and crop plants are laid out in sandy loam soil in wood-fiber pots and covered with soil. The compounds of the invention, formulated in the form of wettable powders (WP) or as emulsion concentrates (EC), are then applied to the surface of the covering soil as aqueous suspension or emulsion at a water application rate equating to 600 to 800 L/ha with addition of 0.2% wetting agent.
(§2) After the treatment, the pots are placed in a greenhouse and kept under good growth conditions for the trial plants. The damage to the test plants is scored visually after a test period of 3 weeks by comparison with untreated controls (herbicidal activity in percent (%): 100% activity=the plants have died, 0% activity=like control plants).

In assay [2] the test system is AVEFA. Kind of assay: Pre-emergence herbicidal action against AVEFA. In kind it is in vivo, Avena fatua. The settings on record: 320 g/ha, scored visually after 3 weeks vs untreated controls.
From the text: as §1, §2

Assay [3] relates to ALOMY. Kind of assay: Pre-emergence herbicidal action against ALOMY. The settings on record: 320 g/ha, scored visually after 3 weeks vs untreated controls. It counts as in vivo, Alopecurus myosuroides.
From the text: as §1, §2

The test system of assay [4] is AVEFA. Kind of assay: Post-emergence herbicidal action against AVEFA. In kind it is in vivo, Avena fatua. The settings on record: 80 g/ha, visual assessment after about 3 weeks. As to the method: (§3) Seeds of monocotyledonous and dicotyledonous weed and crop plants are laid out in sandy loam soil in wood-fiber pots, covered with soil and cultivated in a greenhouse under good growth conditions. 2 to 3 weeks after sowing, the test plants are treated at the one-leaf stage. The compounds of the invention, formulated in the form of wettable powders (WP) or as emulsion concentrates (EC), are then sprayed onto the green parts of the plants as aqueous suspension or emulsion at a water application rate equating to 600 to 800 l/ha with addition of 0.2% wetting agent. After the test plants have been left to stand in the greenhouse under optimal growth conditions for about 3 weeks, the action of the preparations is assessed visually in comparison to untreated controls (herbicidal action in percent (%): 100% activity=the plants have died, 0% activity=like control plants).

The test system of assay [5] is DIGSA. Kind of assay: Pre-emergence herbicidal action against DIGSA. In kind it is in vivo, Digitaria sanguinalis. The settings on record: 320 g/ha, scored visually after 3 weeks vs untreated controls.
From the text: as §1, §2

In assay [6] the test system is ECHCG. Kind of assay: Pre-emergence herbicidal action against ECHCG. In kind it is in vivo, Echinochloa crus-galli. As to conditions: 320 g/ha, scored visually after 3 weeks vs untreated controls.
From the text: as §1, §2

The subject of assay [7] is ALOMY. Kind of assay: Post-emergence herbicidal action against ALOMY. It counts as in vivo, Alopecurus myosuroides. As to conditions: 80 g/ha, visual assessment after about 3 weeks. As to the method: as §3
For assay [8], the system named is SETVI. Kind of assay: Post-emergence herbicidal action against SETVI. The settings on record: 80 g/ha, visual assessment about 3 weeks after treatment vs untreated controls. It counts as in vivo, Setaria viridis. As to the method: as §3
Assay [9] has as its system VIOTR. Kind of assay: Pre-emergence herbicidal action against VIOTR. In kind it is in vivo, Viola tricolor. The settings on record: 320 g/ha.
From the text: as §1, §2

The subject of assay [10] is AMARE. Kind of assay: Pre-emergence herbicidal action against AMARE. It counts as in vivo, Amaranthus retroflexus. As to conditions: 320 g/ha.
From the text: as §1, §2

Assay [11] deals with LOLRI. Kind of assay: Post-emergence herbicidal action against LOLRI. It counts as in vivo, Lolium rigidum. The settings on record: 80 g/ha, visual assessment about 3 weeks after treatment vs untreated controls. As to the method: as §3
Assay [12] deals with SETVI. Kind of assay: Pre-emergence herbicidal action against SETVI. As to conditions: 320 g/ha, scored visually after 3 weeks vs untreated controls. In kind it is in vivo, Setaria viridis.
From the text: as §1, §2

Assay [13] relates to ECHCG. Kind of assay: Post-emergence herbicidal action against ECHCG. It counts as in vivo, Echinochloa crus-galli. The settings on record: 80 g/ha, visual assessment about 3 weeks after treatment vs untreated controls. As to the method: as §3
The subject of assay [14] is DIGSA. Kind of assay: Post-emergence herbicidal action against DIGSA. As to conditions: 80 g/ha, visual assessment about 3 weeks after treatment vs untreated controls. It counts as in vivo, Digitaria sanguinalis. As to the method:
as §3

Consider `CC#Cc1cc(C)c(C2=C(O)C3(CCC(COCCOC)C3)NC2=O)c(OC)c1` (stereo not shown) [Example I-52], for which, in assay [1], the “Pre-emergence herbicidal action against LOLRI in %” value turned out to be 100%. Further, the “Pre-emergence action against AVEFA in %” value in assay [2] came out at 100%. The “Pre-emergence action against ALOMY in %” value in assay [3] stood at 100%. Besides, in assay [4], the “Post-emergence action against AVEFA in %” value was 90%. Moreover, in assay [5], the “Pre-emergence action against DIGSA in %” value came out at 100%. The “Pre-emergence action against ECHCG in %” value in assay [6] turned out to be 100%. Further, the “Post-emergence action against ALOMY in %” value in [7] was determined as 100%. In addition, the “Post-emergence action against SETVI in %” value in assay [8] was determined as 100%. For the same compound, in assay [9], the “Pre-emergence action against VIOTR in %” value came to 80%. Moreover, the “Pre-emergence action against AMARE in %” value in [10] came out at 80%. Further, the “Post-emergence action against LOLRI in %” value in [11] was 90%. Besides, the “Pre-emergence action against SETVI in %” value in assay [12] is on record as 100%. In [13], the “Post-emergence action against ECHCG in %” value is reported as 100%.
As to `CC#Cc1cc(C)c(C2=C(OC(=O)OCC)C3(CCC(COC)C3)NC2=O)c(OC)c1` (stereo not shown) [Example P-47], the “Pre-emergence action against AVEFA in %” value in [2] was determined as 100%. In addition, in assay [3], the “Pre-emergence action against ALOMY in %” value is recorded as 100%. Further, in [4], the “Post-emergence action against AVEFA in %” value came to 90%. In addition, the “Pre-emergence action against DIGSA in %” value in assay [5] is on record as 100%. Further, the “Pre-emergence action against ECHCG in %” value in [6] amounted to 100%. The “Post-emergence action against ALOMY in %” value in assay [7] is recorded as 100%. In addition, the “Post-emergence action against SETVI in %” value in [8] is 100%. Besides, the “Pre-emergence action against VIOTR in %” value in [9] came to 100%. Besides, in [10], the “Pre-emergence action against AMARE in %” value amounted to 100%. In assay [11], the “Post-emergence action against LOLRI in %” value is on record as 100%. The “Post-emergence action against DIGSA in %” value in [14] is 100%. Moreover, the “Pre-emergence action against SETVI in %” value in [12] was 100%. Moreover, the “Post-emergence action against ECHCG in %” value in [13] came out at 100%.
With `CC#Cc1cc(C)c(C2=C(OC(=O)C(C)C)C3(CCC(COC)C3)NC2=O)c(OC)c1` (stereo not shown) [Example P-46], the “Pre-emergence herbicidal action against LOLRI in %” value in [1] was 100%. The “Pre-emergence action against AVEFA in %” value in assay [2] is reported as 100%. In assay [3], the “Pre-emergence action against ALOMY in %” value stood at 100%. The “Post-emergence action against AVEFA in %” value in assay [4] is 90%. In [5], the “Pre-emergence action against DIGSA in %” value was 100%. For the same compound, in assay [6], the “Pre-emergence action against ECHCG in %” value turned out to be 100%. Further, the “Post-emergence action against ALOMY in %” value in [7] was found to be 100%. Moreover, the “Post-emergence action against SETVI in %” value in assay [8] is 100%. The “Pre-emergence action against VIOTR in %” value in assay [9] was found to be 100%. In addition, the “Pre-emergence action against AMARE in %” value in assay [10] was 100%. In addition, in assay [11], the “Post-emergence action against LOLRI in %” value was 100%. In addition, in assay [14], the “Post-emergence action against DIGSA in %” value worked out at 100%. Also, in assay [12], the “Pre-emergence action against SETVI in %” value worked out at 100%. In addition, the “Post-emergence action against ECHCG in %” value in [13] came to 100%.
For `C#CCOCC1CCC2(C1)NC(=O)C(c1c(F)cc(C#CC)cc1OC)=C2OC(=O)OCC` (stereo not shown) [Example P-104], the “Pre-emergence herbicidal action against LOLRI in %” value in assay [1] amounted to 100%. In assay [3], the “Pre-emergence action against ALOMY in %” value was 100%. In assay [4], the “Post-emergence action against AVEFA in %” value worked out at 90%. In addition, the “Pre-emergence action against DIGSA in %” value in assay [5] was determined as 100%. The “Pre-emergence action against ECHCG in %” value in assay [6] was determined as 100%. For the same compound, the “Post-emergence action against ALOMY in %” value in assay [7] came out at 100%. Moreover, the “Post-emergence action against SETVI in %” value in assay [8] was determined as 100%. Also, the “Pre-emergence action against AMARE in %” value in [10] is listed as 100%. The “Post-emergence action against DIGSA in %” value in assay [14] is given as 90%. The “Pre-emergence action against SETVI in %” value in assay [12] is on record as 100%. Also, in assay [13], the “Post-emergence action against ECHCG in %” value worked out at 100%.
Regarding `CC#Cc1cc(C)c(C2=C(OC(=O)C(C)C)C3(CCC(COCC)C3)NC2=O)c(F)c1` (stereo not shown) [Example P-59], the “Pre-emergence herbicidal action against LOLRI in %” value in assay [1] was found to be 100%. The “Pre-emergence action against AVEFA in %” value in assay [2] amounted to 100%. In addition, in assay [3], the “Pre-emergence action against ALOMY in %” value was determined as 100%. In addition, the “Post-emergence action against AVEFA in %” value in assay [4] is recorded as 90%. Also, the “Pre-emergence action against DIGSA in %” value in [5] was 100%. Besides, in assay [6], the “Pre-emergence action against ECHCG in %” value came to 100%. Further, in assay [7], the “Post-emergence action against ALOMY in %” value came to 100%. The “Post-emergence action against SETVI in %” value in assay [8] was 100%. In addition, in assay [9], the “Pre-emergence action against VIOTR in %” value came to 100%. The “Post-emergence action against LOLRI in %” value in assay [11] is listed as 100%. Besides, in [14], the “Post-emergence action against DIGSA in %” value is recorded as 100%. In [12], the “Pre-emergence action against SETVI in %” value is 100%. Moreover, the “Post-emergence action against ECHCG in %” value in assay [13] is recorded as 100%.

The values above are taken from US20220386606A1, “SPECIFICALLY SUBSTITUTED 3-PHENYL-5-SPIROCYCLOPENTYL-3-PYRROLIN-2-ONES AND THEIR USE AS HERBICIDES” (Bayer Aktiengesellschaft, priority 2019, published 2022).
